The values below come from US20070185094A1, “Novel 3-substitued-1,4-benzodiazepines” (ASTON UNIVERSITY, priority 2003, published 2007).

The structures appear in SMILES notation. Read-outs that look alike come from different tables or passages of the source.

For data set [1], the target named is T1, CCKB receptor (Cavia porcellus, UniProt H0VZC5).
T1 sequence (H0VZC5 1-426): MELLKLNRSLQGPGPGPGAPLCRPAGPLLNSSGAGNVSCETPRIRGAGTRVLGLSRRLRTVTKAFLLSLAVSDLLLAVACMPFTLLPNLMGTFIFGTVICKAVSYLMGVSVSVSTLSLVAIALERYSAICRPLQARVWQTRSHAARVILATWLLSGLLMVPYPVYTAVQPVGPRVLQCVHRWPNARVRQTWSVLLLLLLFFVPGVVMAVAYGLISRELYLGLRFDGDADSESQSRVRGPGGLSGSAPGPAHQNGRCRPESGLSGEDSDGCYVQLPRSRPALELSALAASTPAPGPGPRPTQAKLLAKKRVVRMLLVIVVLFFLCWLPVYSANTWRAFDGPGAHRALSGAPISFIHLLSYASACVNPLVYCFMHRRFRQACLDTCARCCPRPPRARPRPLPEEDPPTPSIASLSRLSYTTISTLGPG
In words: 125I-CCK-8 receptor binding assay, CCKB (guinea pig cerebral cortex). On the procedure: CCKA and CCKB receptor binding assays were performed, by using guinea pig cerebral cortex (CCKB) or rat pancreas (CCKA). […]. J. Pharmacol., 269, 249-254]. Pancreatic membranes were prepared in a similar way but by Charpentier et al [(1988), Cyclic cholecystokinin analogues with high selectivity for central receptors., Proc Natl Acad Sci USA, 85, 1968-1972]. The […] CCK binding assay: Tissues were homogenised in ice cold sucrose (0.32 M, 25 ml) for 15 strokes at 500 rpm and centrifuged at 13000 rpm for 10 mins. The supernatant was re-centrifuged at 13000 rpm for 20 mins. The resulting pellet was re-dispersed to the required volume of buffer at 500 rpm and stored in aliquots at […].
(§1) The samples were incubated {with membranes (0.1 mg/ml)} in 20 mM Hepes, 1 mM EGTA, 5 mM MgCl2, 150 mm NaCl, 0.25 mg/ml bacitracin at pH 6.5 for 2 hrs at RT and then […] by centrifugation at 1100 rpm for 5 minutes. The membrane pellets were washed twice with water and the bound radioactivity was measured in a Packard Cobra Auto-gamma counter (B5005). All binding assays were carried out with L-363, 260 as an internal non-specific standard. Controls (no compound) were also added. All samples were made in duplicate and repeated twice. All compounds were initially screened for percentage inhibition at 20 μM.

The target in a further data set is T2, CCKA receptor (Rattus norvegicus, UniProt P30551).
T2 construct: Pancreatic membranes were prepared in a similar way; from tissue; host or cells: rat pancreas membranes
T2 sequence (P30551 1-444): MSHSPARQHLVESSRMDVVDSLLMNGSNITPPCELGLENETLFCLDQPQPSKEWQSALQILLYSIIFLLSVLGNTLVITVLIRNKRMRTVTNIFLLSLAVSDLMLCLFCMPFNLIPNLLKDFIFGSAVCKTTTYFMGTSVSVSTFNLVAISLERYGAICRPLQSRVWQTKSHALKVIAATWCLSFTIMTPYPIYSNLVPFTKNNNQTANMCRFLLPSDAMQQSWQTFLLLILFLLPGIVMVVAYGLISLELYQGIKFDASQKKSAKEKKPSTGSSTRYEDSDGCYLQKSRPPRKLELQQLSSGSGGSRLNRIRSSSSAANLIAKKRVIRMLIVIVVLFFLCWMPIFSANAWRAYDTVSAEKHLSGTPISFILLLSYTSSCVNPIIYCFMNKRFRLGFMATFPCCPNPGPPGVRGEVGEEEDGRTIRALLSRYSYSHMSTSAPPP
In words: 125I-CCK-8 receptor binding assay, CCKA (rat pancreas). Conditions: for Ratio CCKB:CCKA: ratio of IC50 values; for CCKA binding activity in words: dimethylanilines with at least one meta group. On the procedure:
CCKA and CCKB receptor binding assays were performed, by using guinea pig cerebral cortex (CCKB) or rat pancreas (CCKA). Male guinea pig brain tissues were prepared according to the modified method described by Saita et al [(1994), Characterization of YM022: its CCKB/gastrin receptor binding profile and antagonism to CCK-8-induced Ca2+ mobilization., Eur. J. Pharmacol., 269, 249-254]. Pancreatic membranes were prepared in a similar way but by Charpentier et al [(1988), Cyclic cholecystokinin analogues with high selectivity for central receptors., Proc Natl Acad Sci USA, 85, 1968-1972]. The […] CCK binding assay: Tissues were homogenised in ice cold sucrose (0.32 M, 25 ml) for 15 strokes at 500 rpm and centrifuged at 13000 rpm for 10 mins. The supernatant was re-centrifuged at 13000 rpm for 20 mins. The resulting pellet was re-dispersed to the required volume of buffer at 500 rpm and stored in aliquots at […].
as §1

Data set [2] concerns the target T3, pancreatic and gallbladder CCK receptors (Homo sapiens, UniProt P32238).
T3 sequence (P32238 1-428): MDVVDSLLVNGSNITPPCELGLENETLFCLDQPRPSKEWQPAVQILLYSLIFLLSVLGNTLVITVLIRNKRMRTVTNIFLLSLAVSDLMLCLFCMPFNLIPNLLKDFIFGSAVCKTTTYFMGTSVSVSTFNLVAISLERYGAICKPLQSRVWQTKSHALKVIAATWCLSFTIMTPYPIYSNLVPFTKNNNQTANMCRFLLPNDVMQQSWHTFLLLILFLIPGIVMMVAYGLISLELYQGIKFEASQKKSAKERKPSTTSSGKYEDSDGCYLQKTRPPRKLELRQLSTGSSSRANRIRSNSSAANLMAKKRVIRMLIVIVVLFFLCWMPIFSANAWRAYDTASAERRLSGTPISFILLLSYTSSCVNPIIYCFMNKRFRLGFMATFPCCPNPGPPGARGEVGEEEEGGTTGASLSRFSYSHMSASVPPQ
Conditions: cited from earlier work.

The subject of a further data set is MIA-PaCa2 cells. The conditions noted are these: cited from earlier work; for IC50: MIA-PaCa2, read-out: IC50 cytotoxicity.
For data set [3], the system named is advanced pancreatic cancer. Conditions: 18 patients; cited from earlier work.
In a further data set the test system is HT29-S-B6 cells. The conditions noted are these: 10 μM, at least 3 days, exponential phase; cited from earlier work.
Data set [4] addresses CCKB receptor. Conditions: cited from earlier work.
The next data set has as its system CCKB/gastrin receptor. The conditions noted are these: cited from earlier work.

On to `Cc1cccc(N(C)C2N=C(c3ccccc3)c3cc(Cl)ccc3N(CC(=O)C(C)(C)C)C2=O)c1` (racemic) [Example 64, 7-chloro-1-(3,3-dimethyl-2-oxobutyl)-3-(3-dimethylanilino)-5-phenyl-1,3-dihydro-2H-1,4-benzodiazepin-2-one], for which the IC50 is approximately 8 nM at CCKB receptor [1] (read-out: IC50 CCKB) and approximately 24 nM on CCKA receptor.

In the case of `CC(C)C[C@@H]1N[C@H]2N(C1=O)c1ccccc1[C@@]2(O)C[C@@H]1NC(=O)c2ccccc2-n2c1nc1ccccc1c2=O` [Asperlicin], the “affinity relative to proglumide” value in data set [2] is given as 300-400 times.

`N.N.[Cl][Pt][Cl]` [DDP, cisplatin]: in the data set on MIA-PaCa2 cells (1-h exposure), the IC50 was 35300 ± 3200 nM.

With `CN1C(=O)[C@@H](NC(=O)c2cc3ccccc3[nH]2)N=C(c2ccccc2)c2ccccc21` [Devazepide], the “factor of enhancement of sensitivity of MIA-PaCa2 cells to DDP” value in the data set with MIA-PaCa2 cells was 3.5. In addition, the IC50 with MIA-PaCa2 cells (constant exposure schedule) was 9500 ± 1400 nM. Also, in data set [3], the “impact on tumor progression, pain, or nutrition” value was “failed to demonstrate any impact” and the “patients able to tolerate treatment” value was 17 of 18. In the data set with HT29-S-B6 cells, the “enhancement of baseline production of carcinoembryonic antigens” value is recorded as 5 fold and the “enhancement of baseline production of gastric M1 mucins” value is 2-3 fold.

`O=C1Nc2ccc(Cl)cc2C(c2ccccc2)=NC1Nc1ccccc1[N+](=O)[O-]` (centres unmarked) [Example 35, 7-chloro-3-(2-nitroanilino)-5-phenyl-1,3-dihydro-2H-1,4-benzodiazepin-2-one]: the IC50 is 7500 nM at CCKB receptor [1] (IC50 CCKB, Table 3) and more than 20000 nM on CCKA receptor (Table 3).

For the compound `O=C1Nc2ccc(Cl)cc2C(c2ccccc2)=NC1Nc1cccc([N+](=O)[O-])c1` (centres unmarked) [Example 36], the IC50 at CCKB receptor [1] (IC50 CCKB, Table 3) turned out to be 6000 nM; at CCKA receptor, 11 nM. For the same compound, the “Ratio CCKB:CCKA” value on CCKA receptor (Table 3) stood at 545.

Turning to `O=C1Nc2ccc(Cl)cc2C(c2ccccc2)=NC1Nc1ccc([N+](=O)[O-])cc1` (centres unmarked) [Example 37], the IC50 on CCKB receptor [1] (IC50 CCKB, Table 3) is 8500 nM; on CCKA receptor (Table 3) it was more than 20000 nM.

In the case of `O=C1Nc2ccc(Cl)cc2C(c2ccccc2)=NC1Nc1ccccc1Cl` (centres unmarked) [Example 38], the IC50 at CCKB receptor [1] (IC50 CCKB, Table 3) was 9300 nM; at CCKA receptor (Table 3), more than 20000 nM.

Regarding `O=C1Nc2ccc(Cl)cc2C(c2ccccc2)=NC1Nc1cccc(Cl)c1` (centres unmarked) [Example 39, 7-chloro-3-(3-chloroanilino)-5-phenyl-1,3-dihydro-2H-1,4-benzodiazepin-2-one], the IC50 at CCKB receptor [1] (IC50 CCKB, Table 3) is 6200 nM; at CCKA receptor, 270 nM. For the same compound, the “Ratio CCKB:CCKA” value at CCKA receptor (Table 3) worked out at 23.

With `COc1ccccc1NC1N=C(c2ccccc2)c2cc(Cl)ccc2NC1=O` (centres unmarked) [Example 41], the IC50 on CCKB receptor [1] (IC50 CCKB, Table 3) is 1500 nM; on CCKA receptor (Table 3) it was more than 20000 nM.

`COc1cccc(NC2N=C(c3ccccc3)c3cc(Cl)ccc3NC2=O)c1` (centres unmarked) [Example 42]: on CCKA receptor, the IC50 amounted to 10 nM. Besides, the “Ratio CCKB:CCKA” value on CCKA receptor (Table 3) was 450.

Consider `COc1ccc(NC2N=C(c3ccccc3)c3cc(Cl)ccc3NC2=O)cc1` (centres unmarked) [Example 43, 7-chloro-3-(4-methoxyanilino)-5-phenyl-1,3-dihydro-2H-1,4-benzodiazepin-2-one], for which the IC50 on CCKB receptor [1] (IC50 CCKB, Table 3) is more than 10000 nM; at CCKA receptor (Table 3), not below 20000 nM.

`Cc1ccc(NC2N=C(c3ccccc3)c3cc(Cl)ccc3NC2=O)cc1` (centres unmarked) [Example 46] returned an IC50 at CCKB receptor [1] (IC50 CCKB, Table 3) of 4600 nM. In addition, on CCKA receptor (Table 3), the IC50 turned out to be 290 nM and the “Ratio CCKB:CCKA” value is given as 16.

`Cc1cccc(C)c1NC1N=C(c2ccccc2)c2cc(Cl)ccc2NC1=O` (centres unmarked) [Example 47]: the IC50 at CCKB receptor [1] (IC50 CCKB, Table 3) is more than 10000 nM; at CCKA receptor (Table 3) it was 10000 nM.

Regarding `Cc1ccc(NC2N=C(c3ccccc3)c3cc(Cl)ccc3NC2=O)cc1C` (centres unmarked) [Example 48], on CCKB receptor [1] (IC50 CCKB, Table 3), the IC50 came to 920 nM. Further, on CCKA receptor (Table 3), the IC50 came out at 15 nM and the “Ratio CCKB:CCKA” value is 61. Besides, on CCKA receptor, the “CCKA binding activity in words” value was “equally active”.

With `Cc1cccc(NC2N=C(c3ccccc3)c3cc(Cl)ccc3NC2=O)c1C` (centres unmarked) [Example 49], the IC50 at CCKB receptor [1] (IC50 CCKB, Table 3) is 6000 nM; at CCKA receptor (Table 3) it was 18 nM. In addition, on CCKA receptor (Table 3), the “Ratio CCKB:CCKA” value turned out to be 333. For the same compound, the “CCKA binding activity in words” value at CCKA receptor is given as “equally active”.

With `Cc1cc(C)cc(NC2N=C(c3ccccc3)c3cc(Cl)ccc3NC2=O)c1` (centres unmarked) [Example 50], the IC50 at CCKB receptor [1] (IC50 CCKB, Table 3) worked out at 2900 nM. Moreover, at CCKA receptor (Table 3), the IC50 was found to be 9 nM and the “Ratio CCKB:CCKA” value amounted to 322. Further, the “CCKA binding activity in words” value at CCKA receptor is “equally active”.

Regarding `O=C1Nc2ccc(Cl)cc2C(c2ccccc2)=NC1Nc1ccccc1` (centres unmarked) [Example 53], the IC50 was determined as 4100 nM on CCKB receptor [1] (IC50 CCKB, Table 3) and 240 nM at CCKA receptor (Table 3). Also, on CCKA receptor (Table 3), the “Ratio CCKB:CCKA” value was 17.

With `CN(c1ccccc1)C1N=C(c2ccccc2)c2cc(Cl)ccc2NC1=O` (centres unmarked) [Example 54], the IC50 at CCKB receptor [1] (IC50 CCKB, Table 3) is 150 nM; at CCKA receptor it was 14 nM. Further, on CCKA receptor (Table 3), the “Ratio CCKB:CCKA” value stood at 11.

With `Cc1cccc(N(C)C2N=C(c3ccccc3)c3cc(Cl)ccc3NC2=O)c1` (centres unmarked) [Example 55, 7-chloro-3-(3-dimethylanilino)-5-phenyl-1,3-dihydro-2H-1,4-benzodiazepin-2-one], the IC50 worked out at 70 nM on CCKB receptor [1] (IC50 CCKB) and 8 nM at CCKA receptor. On CCKA receptor (Table 3), the “Ratio CCKB:CCKA” value is on record as 9.

In the case of `CCN(c1cccc(C)c1)C1N=C(c2ccccc2)c2cc(Cl)ccc2NC1=O` (centres unmarked) [Example 56], the IC50 at CCKB receptor [1] (IC50 CCKB, Table 3) was determined as 650 nM. Moreover, on CCKA receptor (Table 3), the IC50 was 330 nM and the “Ratio CCKB:CCKA” value was 2.

With `Cc1cccc(NC(=O)NC2N=C(C3CCCCC3)c3ccccc3N(C)C2=O)c1` [L-708,474], at CCKB receptor [4], the IC50 is 0.28 nM and the “selectivity for CCKB receptors over CCKA” value is listed as 6,500 fold.

Take `Cc1ccc(NC(=O)NC2N=C(C3CCCCC3)c3ccccc3N(C)C2=O)cc1Nc1nnn[nH]1` [L-737,425]: the CCKA/CCKB ratio in the data set on CCKB receptor [4] is on record as 37000.

With `Cc1cccc(NC(=O)NC2N=C(c3ccccc3)c3ccccc3N(CC(=O)c3ccccc3C)C2=O)c1` (centres unmarked) [YM022], in the data set on CCKB/gastrin receptor, the CCKA/CCKB ratio result is “about 1300”. Also, the IC50 at CCKB/gastrin receptor (read-out: IC50 CCKB/gastrin receptor affinity) was 0.11 nM.
